Blank lines part the entries; values can stand above or below the compound they belong to.
Columns and labels:
[1] = molecular target: T1, Induced myeloid leukemia cell differentiation protein Mcl-1 (Homo sapiens, UniProt Q07820); assay: Inhibition of human recombinant Mcl-1 by Surface Plasmon Resonance assay
[2] = molecular target: T1, Induced myeloid leukemia cell differentiation protein Mcl-1; assay: Binding affinity to N-terminal His-tagged human recombinant Mcl-1 (172 to 327 residues) expressed in Escherichia coli BL21 (DE3) assessed as inhibition constant
[3] = molecular target: T2, Apoptosis regulator Bcl-2 (Homo sapiens, UniProt P10415); assay: Binding affinity to human Bcl-2 assessed as inhibition constant SPR assay
T2 sequence (P10415 whole entry): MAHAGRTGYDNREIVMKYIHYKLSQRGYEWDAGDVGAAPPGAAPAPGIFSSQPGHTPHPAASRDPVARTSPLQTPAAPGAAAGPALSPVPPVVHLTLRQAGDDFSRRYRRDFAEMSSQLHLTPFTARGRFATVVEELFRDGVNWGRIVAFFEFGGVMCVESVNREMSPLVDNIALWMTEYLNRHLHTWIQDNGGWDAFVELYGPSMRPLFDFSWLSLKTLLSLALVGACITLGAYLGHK

OCI-AML-5 = assay: Antiproliferative activity against human OCI-AML5 cells assessed as reduction in cell viability incubated for 48 hrs by MTT assay; details: OCI-AML-5, 48 h
NCI-H929 [4] = assay: Antiproliferative activity against human NCI-H929 cells assessed as reduction in cell viability; type: functional, cell-based
MV4-11 [5] = assay: animal or person; details: Mus musculus, MV4-11, po, 120 h, read-out: TGI
Description: Antitumor activity against human MV4-11 cells xenografted in C57BL/6 mouse assessed as tumor growth inhibition at 12.5 mg/kg, po administered once daily for 5 days relative to control

HL-60 = assay: Growth inhibition of human HL-60 cells incubated for 48 hrs by cell-titer Glo reagent based assay; type: functional
MOLM-13 [6] = assay: Growth inhibition of human MOLM-13 cells incubated for 48 hrs by cell-titer Glo reagent based assay; type: functional
THP-1 = assay: Growth inhibition of human THP-1 cells incubated for 48 hrs by cell-titer Glo reagent based assay; type: functional
MV4-11 [7] = assay: Antitumor activity against human MV4-11 cells xenografted in SCID mouse assessed as inhibition of tumor growth at 100 mg/kg administered for 14 days consecutively relative to control; type: functional; details: MV4-11, 336 h, time 14 day, read-out: TGI
BC = assay: Growth inhibition of human BC cells; type: functional
HCC1187 = assay: Growth inhibition of human HCC1187
MV4-11 [8] = assay: cells; details: Homo sapiens, MV4-11, 48 h
Description: Growth inhibition of human MV4-11 cells incubated for 48 hrs by cell-titer Glo reagent based assay

[9] = molecular target: T1, Induced myeloid leukemia cell differentiation protein Mcl-1; assay: Binding affinity to Mcl-1 (unknown origin) assessed as inhibition constant by Fluorescence polarization assay
[10] = molecular target: T1, Induced myeloid leukemia cell differentiation protein Mcl-1; assay: Binding affinity to human Mcl-1 assessed as dissociation constant by Surface Plasmon Resonance assay
NCI-H522 = assay: Antiproliferative activity against human NCI-H522 cells assessed as reduction in cell viability incubated for 48 hrs by MTT assay; type: functional, cell-based; details: NCI-H522, 48 h
SK-BR-3 = assay: Antiproliferative activity against human SK-BR-3 cells assessed as reduction in cell viability incubated for 48 hrs by MTT assay; type: functional, cell-based; details: SK-BR-3, 48 h
SK-MEL-2 = assay: Antiproliferative activity against human SK-MEL-2 cells assessed as reduction in cell viability incubated for 48 hrs by MTT assay; type: functional, cell-based; details: SK-MEL-2, 48 h
NCI-H929 [11] = assay: Antitumor activity against human NCI-H929 cells xenografted in mouse model assessed as tumor growth inhibition at 25 mg/kg administered for 5 days relative to control; type: functional; details: NCI-H929, 120 h, time 5 day, read-out: TGI
AMO1 [12] = assay: Antitumor activity against human AMO1 cells xenografted in mouse model assessed as tumor growth inhibition at 25 mg/kg administered for 5 days relative to control; type: functional; details: AMO1, 120 h, time 5 day, read-out: TGI
AMO1 [13] = assay: Antitumor activity against human AMO1 cells xenografted in mouse model assessed as tumor growth inhibition at 6.25 mg/kg administered for 5 days relative to control; type: functional; details: AMO1, 120 h, time 5 day, read-out: TGI
AMO1 [14] = assay: Antiproliferative activity against human AMO1 cells assessed as reduction in cell viability; type: functional, cell-based
MV4-11 [15] = assay: Antiproliferative activity against human MV4-11 cells assessed as reduction in cell viability; type: functional, cell-based
[16] = molecular target: T1, Induced myeloid leukemia cell differentiation protein Mcl-1; assay: Binding affinity to human Mcl-1 assessed as inhibition constant
EOL1 = assay: Induction of apoptosis in human EOL1 cells; type: functional, cell-based
MOLM-13 [17] = assay: Induction of apoptosis in human MOLM-13 cells; type: functional, cell-based
MV4-11 [18] = assay: Induction of apoptosis in human MV4-11 cells; type: functional, cell-based
SUD4 = assay: Induction of apoptosis in human SU-DHL-4 cells; type: functional, cell-based
MOLP-8 [19] = assay: Induction of apoptosis in human MOLP8 cells; type: functional, cell-based
Bcl-2-like protein 1 [20] = molecular target: T3, Bcl-2-like protein 1 (Homo sapiens, UniProt Q07817); assay: Binding affinity to Bcl-XL (unknown origin) assessed as inhibition constant by fluorescence polarization assay
T3 sequence (Q07817 whole entry): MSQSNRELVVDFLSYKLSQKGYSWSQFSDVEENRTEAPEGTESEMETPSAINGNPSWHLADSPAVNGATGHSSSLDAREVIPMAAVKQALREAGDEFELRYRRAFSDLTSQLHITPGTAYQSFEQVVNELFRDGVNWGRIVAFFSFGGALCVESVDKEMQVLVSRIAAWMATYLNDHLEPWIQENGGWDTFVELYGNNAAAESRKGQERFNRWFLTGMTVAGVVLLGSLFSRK

[21] = molecular target: T2, Apoptosis regulator Bcl-2; assay: Binding affinity to Bcl-2 (unknown origin) expressed in Escherichia coli BL21 (DE3) assessed as inhibition constant by fluorescence polarization assay
MOLM-13 [22] = assay: Growth inhibition of human MOLM-13 cells by cell-titer Glo reagent based assay; type: functional
[23] = molecular target: T1, Induced myeloid leukemia cell differentiation protein Mcl-1; assay: Binding affinity to Mcl-1 (unknown origin) assessed as inhibition constant
[24] = molecular target: T1, Induced myeloid leukemia cell differentiation protein Mcl-1; assay: Inhibition of N-terminal GST-tagged human Mcl-1expressed in Escherichia coli by TR-FRET analysis
[25] = molecular target: T1, Induced myeloid leukemia cell differentiation protein Mcl-1; assay: Inhibition of Mcl-1 (unknown origin)
[26] = molecular target: T2, Apoptosis regulator Bcl-2; assay: Binding affinity to Bcl-2 (unknown origin) assessed as inhibition constant
Bcl-2-like protein 1 [27] = molecular target: T3, Bcl-2-like protein 1; assay: Binding affinity to Bcl-xL (unknown origin) assessed as inhibition constant
Bcl-2-like protein 2 = Bcl-2-like protein 2 (Homo sapiens, UniProt Q92843); assay: Binding affinity to Bcl-W (unknown origin) assessed as inhibition constant
Sequence of Bcl-2-like protein 2 (Q92843 whole entry): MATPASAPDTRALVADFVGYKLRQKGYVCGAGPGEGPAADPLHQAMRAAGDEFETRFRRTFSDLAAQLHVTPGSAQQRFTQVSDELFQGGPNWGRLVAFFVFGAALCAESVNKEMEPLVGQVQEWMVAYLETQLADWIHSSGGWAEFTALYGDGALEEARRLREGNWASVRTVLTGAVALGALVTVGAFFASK

Bcl-2-related protein A1 = Bcl-2-related protein A1 (Homo sapiens, UniProt Q16548); assay: Binding affinity to Bfl-1 (unknown origin) assessed as inhibition constant
Sequence of Bcl-2-related protein A1 (Q16548 whole entry): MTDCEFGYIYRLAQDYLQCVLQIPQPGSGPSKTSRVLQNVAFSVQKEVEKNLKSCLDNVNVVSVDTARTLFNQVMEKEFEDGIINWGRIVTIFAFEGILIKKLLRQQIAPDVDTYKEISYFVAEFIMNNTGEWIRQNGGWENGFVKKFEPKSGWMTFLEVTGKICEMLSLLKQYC

AMO1 [28] = assay: Antitumor activity against human AMO1 cells xenografted in mouse model assessed as tumor growth inhibition at 12.5 mg/kg administered for 20 days relative to control; type: functional; details: AMO1, 480 h, time 20 day, read-out: TGI
MOLP-8 [29] = assay: Antiproliferative activity against human MOLP8 cells assessed as reduction in cell viability incubated for 24 hrs by Celltiter-Glo reagent based assay; details: MOLP-8, 24 h
MV4-11 [30] = assay: Antiproliferative activity against human MV4-11 cells assessed as reduction in cell viability incubated for 24 hrs by Celltiter-Glo reagent based assay; details: MV4-11, 24 h
NCI-H23 = assay: Antiproliferative activity against human NCI-H23 cells assessed as reduction in cell viability incubated for 24 hrs by Celltiter-Glo reagent based assay; type: functional; details: NCI-H23, 24 h
[31] = Oral bioavailability in CD-1 mouse at 10 mg/kg, […]; type: ADME, organism-based; details: in vivo

T1 sequence (Q07820 whole entry, the tested form may be a part): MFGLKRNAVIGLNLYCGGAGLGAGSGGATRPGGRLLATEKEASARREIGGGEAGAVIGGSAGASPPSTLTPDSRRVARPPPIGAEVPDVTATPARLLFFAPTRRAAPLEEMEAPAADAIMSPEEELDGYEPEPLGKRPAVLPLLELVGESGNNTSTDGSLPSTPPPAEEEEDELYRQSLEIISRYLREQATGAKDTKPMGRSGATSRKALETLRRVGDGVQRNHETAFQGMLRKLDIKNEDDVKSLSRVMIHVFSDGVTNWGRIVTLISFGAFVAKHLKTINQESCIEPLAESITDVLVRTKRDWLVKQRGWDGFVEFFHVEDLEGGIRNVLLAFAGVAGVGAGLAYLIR

Compound: O=C(O)CSc1cc(NS(=O)(=O)c2ccc(Br)cc2)c2ccccc2c1O
- IC50 [1]: 310 nM

Compound: Cc1cc(OCCC(=O)O)cc(C)c1Cl
- Ki [2]: 68000 nM

Compound: Cc1c(-c2c(-c3ccc(F)o3)sc3ncnc(O[C@H](Cc4ccccc4OCc4ccnn4CC(F)(F)F)C(=O)O)c23)ccc(OCCN2CCN(C)CC2)c1Cl
- Ki [3]: > 10000 nM
- IC50 (OCI-AML-5): 4 nM
- EC50 (NCI-H929 [4]): < 10 nM
- inhibition in vivo at 12.5 mg/kg (MV4-11 [5]): 86%

Compound: CCc1sc2ncnc(N[C@@H](C)C(=O)O)c2c1CC
- Ki [9]: 1.2 nM
- Kd [10]: 0.19 nM

Compound: COc1ccccc1-c1nccc(COc2ccccc2C[C@H](Oc2ncnc3sc(-c4ccc(F)cc4)c(-c4ccc(OCCN5CCN(C)CC5)c(Cl)c4C)c23)C(=O)O)n1
- IC50 (NCI-H522): < 100 nM
- IC50 (SK-BR-3): < 100 nM
- IC50 (SK-MEL-2): < 100 nM
- inhibition in vivo at 25 mg/kg (NCI-H929 [11]): 103%
- inhibition in vivo at 25 mg/kg (AMO1 [12]): 114%
- inhibition in vivo at 6.25 mg/kg (AMO1 [13]): 190%
- EC50 (AMO1 [14]): 2.06 nM
- EC50 (NCI-H929 [4]): 4.75 nM
- EC50 (MV4-11 [15]): 10.9 nM

Compound: CCC1CC/C=C/C(O)C2CCC2CN2CC3(CCc4cc(Cl)ccc43)COc3ccc(cc32)C(=O)NS1(=O)=O (stereo unspecified)
- Ki [23]: 0.05 nM

Compound: O=C(NS(=O)(=O)Cc1ccccc1)c1ccc2c(c1)N(CC1CCC1)CC(c1ccc(Cl)cc1Cl)O2 (stereo unspecified)
- IC50 [25]: 300 nM

Compound: Cc1c(Cl)c2c(Cl)c(C)c1-c1c(-c3ccc(F)cc3)sc3ncnc(c13)O[C@@H](C(=O)O)Cc1cc(ccc1OCc1ccnc(-c3ccc(OC[C@@H]4COCCO4)cc3)n1)OC[C@@H](CN1CCN(C)CC1)O2
- Ki [23]: < 0.01 nM
- Ki [26]: 599 nM
- Ki (Bcl-2-like protein 1 [27]): > 660 nM
- Ki (Bcl-2-like protein 2): > 468 nM
- Ki (Bcl-2-related protein A1): > 468 nM
- inhibition in vivo at 12.5 mg/kg (AMO1 [28]): 46%
- EC50 (AMO1 [14]): 0.16 nM
- EC50 (NCI-H929 [4]): 0.47 nM
- EC50 (MV4-11 [15]): 3.91 nM

Compound: CO[C@]1(CN2CCN3CCCC[C@@H]3C2)/C=C/C[C@H](C)[C@@H](C)S(=O)(=O)NC(=O)c2ccc3c(c2)N(C[C@@H]2CC[C@H]21)C[C@@]1(CCCc2cc(Cl)ccc21)CO3 [MURIZATOCLAX]
- EC50 (AMO1 [14]): 13.5 nM
- EC50 (NCI-H929 [4]): 13 nM
- EC50 (MV4-11 [15]): 43.6 nM

Compound: CC1(C)CCC(c2ccc(Cl)cc2)=C(CN2CCN(c3ccc(C(=O)NS(=O)(=O)c4ccc(N[C@H](CCN5CCOCC5)CSc5ccccc5)c(S(=O)(=O)C(F)(F)F)c4)cc3)CC2)C1 [NAVITOCLAX]
- bioavailability [31]: 57%

Now from value to compound, other results behind:

- GI50 (HL-60): 3710 nM
- GI50 (MOLM-13 [6]): 210 nM
- GI50 (THP-1): 490 nM
- GI50 (HCC1187): 2100 nM
- GI50 (MV4-11 [8]): 180 nM
Compound: Cc1cc(OCCCc2c3n(c4c(-c5c(C)nn(C)c5C)c(Cl)ccc24)[C@H](C)CN(c2cn(C)c4ccc(C(=O)O)cc24)C3=O)cc(C)c1Cl
- inhibition in vivo at 100 mg/kg (MV4-11 [7]): 60%
- GI50 (BC): 1300 nM

- Ki [16]: 0.006 nM
- Ki (Bcl-2-like protein 1 [20]): 5000 nM
- Ki [21]: 3750 nM
- GI50 (MOLM-13 [22]): 10 nM
Compound: COCCOCCn1nc(C)c2c1CSCc1cc(n(C)n1)CCc1cc(c3ccccc3c1)OCCCn1c(C(=O)O)c(C)c3c-2c(Cl)ccc31
- AC50 (EOL1): 2.1 nM
- AC50 (MOLM-13 [17]): 10 nM
- AC50 (MV4-11 [18]): 14 nM
- AC50 (SUD4): 21 nM
- AC50 (MOLP-8 [19]): 8.7 nM

- IC50 [24]: 42 nM
Compound: Cc1cc(SCc2nn(C)c(C)c2-c2cccc3c(CCCOc4cccc5ccccc45)c(C(=O)O)[nH]c23)nn1C

- IC50 [24]: 19 nM
Compound: Cc1c2c(nn1C)CSCc1cc(n(C)n1)CCc1cc(c3ccccc3c1)OCCCc1c(C(=O)O)[nH]c3c-2cccc13

- EC50 (MV4-11 [30]): 24 nM
- EC50 (NCI-H23): 190 nM
- EC50 (NCI-H929 [4]): 31.7 nM
- EC50 (MV4-11 [15]): 34.9 nM
Compound: Cc1c2c(nn1C)CSCc1cc(n(C)n1)CSc1cc(c3ccccc3c1)OCCCc1c(C(=O)O)n(C)c3c-2c(Cl)ccc13 [AZD-5991]
- EC50 (MOLP-8 [29]): 33 nM
- EC50 (AMO1 [14]): 22.9 nM

Reference: ChEMBL document CHEMBL5506012, “Targeting Myeloid Leukemia-1 in Cancer Therapy: Advances and Directions” (J Med Chem, 2024)
